Test results taken from patent US8937154B2, “Stabilized therapeutic small helical antiviral peptides” (priority 2006, dated 2015).
Where a SMILES comes first, the peptide text is derived from it. Bridges are numbered along the chain shown (N, C = ends). [ ]: non-standard residue; d: D form. The star is where a group is joined. FITC = O=C1OC2(c3ccc(O)cc3Oc3cc(O)ccc32)c2ccc(NC(=S)*)cc21; R8 = C=CCCCCCC[C@@](C)(N)C(=O)O; S5 = C=CCCC[C@](C)(N)C(=O)O; βAla = NCCC(=O)O

How the values were obtained:
HIV-IIIB = experiment: Viral re-infection assay: infectivity of virions released by treated HIV-1 infected MT-2 cells; format: cell-based; conditions: for infectivity respect to the control: about 7 μM
Method: The infectivity potential of the virions released by HIV-1 infected MT-2 cells treated with different concentrations of small stapled peptides. […] Control cells were untreated or treated with 1 ug/ml of AMD3100 (CXCR-4 receptor inhibitor). Following overnight incubation the medium was completely removed and replaced with fresh medium. On the fourth day post-infection the supernatants were collected. One aliquot of each sample was mixed 1:1 with a solution of 5% Triton X-100 for p24 quantification, and stored at 4° C., another aliquot was immediately frozen at −80° C. and used to compare the infectivity of the viral particles released by treated cells to the viral particles released by untreated cells. Following p24 quantification by sandwich-ELISA MT-2 cells were infected with viral samples normalized for the p24 content to calculate the TCID50. Following overnight incubation ¾ of the medium containing the inoculum was replaced with fresh medium. On the fourth day post infection supernatants were collected for p24 quantification and the TCID50 was calculated by the Spearman-Karber statistical method.
Therefore, to infect MT-2 cells we used the maximum quantities of supernatants possible.

HIV-1 IIIB [1] = experiment: Western blot of p24 and p55 after treatment of HIV-1 IIIB infected MT-2 cells; format: cell-based; conditions: anti-p24 mAb, graded concentrations, vs positive untreated control
Method: Control cells were uninfected MT-2 or infected and untreated MT-2. Following overnight incubation the culture supernatant was completely removed and replaced with fresh medium. On the fourth day post-infection cells and virus supernatants were harvested. The supernatants were filtered and ultra-centrifuged through a 20% sucrose cushion for 2 hr at 27,000 rpm with a SW28 rotor to concentrate the viral particles. Viral pellets were slowly re-suspended and lysed. Cells were collected and processed for protein extraction. […] Proteins were then visualized by Western Blot and immuno-detected with HIV-1 anti-p24 gag mAb.
Same amounts of viral and cellular proteins were immunodetected with an anti-p24 mAb.

HIV-1 IIIB [2] = format: cell-based
Method: The inhibitory activity of the constrained peptide described in Example 1 on infection by laboratory-adapted HIV-1 strains was determined as described in Jiang et al. (1991).

[3] = Circular dichroism, secondary structure in solution; format: physicochemical; conditions: 25° C., 1×PBS, 1-20% acetonitrile, 100 μM peptide
Method: We used circular dichroism (CD) to characterize the secondary structure of NYAD-1 and CAI in the uncomplexed state in solution. CD spectra were obtained on a Jasco J-715 Spectropolarimeter (Jasco Inc.) at 20° C. using the standard measurement parameters in Tris-HCl buffer (20 mM Tris, pH 8.0) in the presence of 1-15% (v/v) acetonitrile at a final concentration of 125-500 μM. In all the samples, the final concentrations of peptides and salt were always the same, and the spectra were corrected by subtracting the CD spectra of the appropriate reference solvent. Percent α-helix was calculated from molar ellipticity value at 222 nm.
The CD spectra were measured at 25° C. in 1×PBS in the presence of 1-20% (v/v) acetonitrile at a final concentration of peptide of 100 μM.
We used CD spectroscopy to determine the secondary structure characteristics of the stapled peptide NYAD-36. The corresponding linear peptide, NYAD-41, was used as control.

CTDM184A/W185A = CTDM184A/W185A (Human immunodeficiency virus type 1 group M subtype B, UniProt P04591, M317A/W316A); experiment: Isothermal titration calorimetry; design: species or system HIV-1; conditions: ITC, 25 mM sodium phosphate buffer (pH 7.3), single-binding model
Method: In a typical experiment, the ITC injection syringe was loaded with 625 μM CTDM184A/W185A protein dissolved in the dialysis buffer. […] Typically titrations consisted of 27 injections of 10 μl into the calorimetric cell, with 240-s equilibration between injections. The thermodynamic parameters were obtained and data were analysed using MicroCal Origin 7.0 software.

[4] = test system: HIV-1 gag-mStrawberry fusion protein; experiment: Direct colocalization with gag by confocal microscopy; format: cell-based; conditions: 293T cells transfected with pEF6A-gag-mStrawberry; near the plasma membrane
Method: A direct colocalization study was performed by transfecting 293T cells with pEF6A-gag-mStrawberry for 4 hr and then washing cells once with PBS. A serum-free or serum-containing medium containing FITC-conjugated peptide was added for another 20 hr culture. After three washes, the cells were examined and imaged under a Zeiss LSM510 laser scanning confocal microscope.

Compound	p24 and p55 levels in the cellular preparation (HIV-1 IIIB [1])	p24 and p55 levels in the viral preparation (viral lysates) (HIV-1 IIIB [1])	IC50 (HIV-1 IIIB [2])	other results
c1cc(CN2CCCNCCNCCCNCC2)ccc1CN1CCCNCCNCCCNCC1 [AMD3100, reference compound]	–	–	–	viral infectivity of particles released by treated cells (HIV-IIIB; 1 ug/ml): very little to no viral infectivity
CC[C@H](C)[C@H](N)C(=O)N[C@@H](CO)C(=O)N[C@@H](Cc1ccccc1)C(=O)N[C@@]1(C)CCC/C=C\CCC[C@@](C)(C(=O)N[C@@H](Cc2ccc(O)cc2)C(=O)N[C@@H](Cc2ccc(O)cc2)C(=O)NCC(=O)N[C@@H](CCCNC(=N)N)C(N)=O)NC(=O)[C@H](CC(C)C)NC(=O)[C@H](CC(C)C)NC(=O)[C@H](CCC(=O)O)NC1=O [NYAD-15] (H-ISF[S5]ELL[S5]YYGR-NH2; staple (Z) 4-8; N-terminus and C-terminus assumed)	dose-dependent decrease	dose-dependent decrease	4.86 ± 1.55 µM	–
CC[C@H](C)[C@H](N)C(=O)N[C@H](C(=O)N[C@@H](Cc1ccccc1)C(=O)N[C@@]1(C)CCC/C=C\CCC[C@@](C)(C(=O)N[C@@H](Cc2ccc(O)cc2)C(=O)N[C@@H](Cc2ccc(O)cc2)C(=O)NCC(=O)N[C@@H](CCC(=O)O)C(=O)N[C@@H](CCCCN)C(N)=O)NC(=O)[C@H](CC(C)C)NC(=O)[C@H]([C@@H](C)CC)NC(=O)[C@H](CC(=O)O)NC1=O)[C@@H](C)O [NYAD-23] (H-ITF[S5]DIL[S5]YYGEK-NH2; staple (Z) 4-8; N-terminus and C-terminus assumed)	dose-dependent decrease	dose-dependent decrease	9.1 ± 0.74 µM	–
CC[C@H](C)[C@H](N)C(=O)N[C@@H](CO)C(=O)N[C@@H](Cc1ccccc1)C(=O)N[C@@]1(C)CCC/C=C\CCC[C@@](C)(C(=O)N[C@@H](Cc2ccc(O)cc2)C(=O)N[C@@H](Cc2ccc(O)cc2)C(=O)NCC(=O)N[C@@H](CCC(=O)O)C(=O)N[C@@H](CCCCN)C(N)=O)NC(=O)[C@H](CC(C)C)NC(=O)[C@H](CC(C)C)NC(=O)[C@H](CCC(=O)O)NC1=O [NYAD-24] (H-ISF[S5]ELL[S5]YYGEK-NH2; staple (Z) 4-8; N-terminus and C-terminus assumed)	–	–	13.8 ± 3.57 µM	–
CC[C@H](C)[C@H](N)C(=O)N[C@H](C(=O)N[C@@H](Cc1ccccc1)C(=O)N[C@@]1(C)CCC/C=C\CCC[C@@](C)(C(=O)N[C@@H](Cc2ccc(O)cc2)C(=O)N[C@@H](Cc2ccc(O)cc2)C(=O)NCC(=O)N[C@@H](CCCNC(=N)N)C(N)=O)NC(=O)[C@H](CC(C)C)NC(=O)[C@H](Cc2c[nH]c3ccccc23)NC(=O)[C@H](CC(=O)O)NC1=O)[C@@H](C)O [NYAD-31] (H-ITF[S5]DWL[S5]YYGR-NH2; staple (Z) 4-8; N-terminus and C-terminus assumed)	–	–	13.5 ± 1.4 µM	–
CC[C@H](C)[C@H](N)C(=O)N[C@@H](CO)C(=O)N[C@@H](Cc1ccccc1)C(=O)N[C@]1(C)CCCCCC/C=C\CCC[C@@](C)(C(=O)N[C@@H](CCCNC(=N)N)C(N)=O)NC(=O)[C@H](Cc2ccc(O)cc2)NC(=O)[C@H](Cc2ccc(O)cc2)NC(=O)[C@H](CCC(N)=O)NC(=O)[C@H](CC(C)C)NC(=O)[C@H](Cc2c[nH]c3ccccc23)NC(=O)[C@H](CCC(=O)O)NC1=O [NYAD-33] (H-ISF[R8]EWLQYY[S5]R-NH2; staple (Z) 4-11; N-terminus and C-terminus assumed)	–	–	3.37 ± 0.06 µM	viral infectivity of particles released by treated cells (HIV-IIIB; 7 μM): very little to no viral infectivity; viral infectivity of particles released by treated cells (HIV-IIIB; 14 μM): very little to no viral infectivity; infectivity respect to the control (HIV-IIIB): 25%
CC[C@H](C)[C@H](N)C(=O)N[C@@H](CO)C(=O)N[C@@H](Cc1ccccc1)C(=O)N[C@@]1(C)CCC/C=C\CCC[C@@](C)(C(=O)N[C@@H](Cc2ccc(O)cc2)C(=O)N[C@@H](Cc2ccc(O)cc2)C(=O)NCC(=O)N[C@@H](CCCNC(=N)N)C(=O)N[C@@H](CO)C(=O)NCC(=O)N[C@@H](CO)C(N)=O)NC(=O)[C@H](CC(C)C)NC(=O)[C@H](CC(C)C)NC(=O)[C@H](CCC(=O)O)NC1=O [NYAD-34] (H-ISF[S5]ELL[S5]YYGRSGS-NH2; staple (Z) 4-8; N-terminus and C-terminus assumed)	–	–	12.7 ± 0.9 µM	–
CC[C@H](C)[C@H](N)C(=O)N[C@@H](CO)C(=O)N[C@@H](Cc1ccccc1)C(=O)N[C@@]1(C)CCC/C=C\CCC[C@@](C)(C(=O)N[C@@H](Cc2ccc(O)cc2)C(=O)N[C@@H](Cc2ccc(O)cc2)C(=O)NCC(=O)N[C@@H](CCC(=O)O)C(=O)N[C@@H](CO)C(=O)NCC(=O)N[C@@H](CO)C(N)=O)NC(=O)[C@H](CC(C)C)NC(=O)[C@H](CC(C)C)NC(=O)[C@H](CCC(=O)O)NC1=O [NYAD-35] (H-ISF[S5]ELL[S5]YYGESGS-NH2; staple (Z) 4-8; N-terminus and C-terminus assumed)	–	–	4.51 ± 0.14 µM	–
CC[C@H](C)[C@H](N)C(=O)N[C@@H](CO)C(=O)N[C@@H](Cc1ccccc1)C(=O)N[C@]1(C)CCCCCC/C=C\CCC[C@@](C)(C(=O)N[C@@H](CCC(=O)O)C(=O)N[C@@H](CO)C(=O)NCC(=O)N[C@@H](CO)C(N)=O)NC(=O)[C@H](Cc2ccc(O)cc2)NC(=O)[C@H](Cc2ccc(O)cc2)NC(=O)[C@H](CC(=O)O)NC(=O)[C@H](CC(C)C)NC(=O)[C@H](CC(C)C)NC(=O)[C@H](CCC(=O)O)NC1=O [NYAD-36] (H-ISF[R8]ELLDYY[S5]ESGS-NH2; staple (Z) 4-11)	the same decrease was not detected	dose-dependent decrease	1.5 ± 0.17 µM	secondary structure by CD [3]: α-helical structure; solubility: < 100 µM; ΔH (CTDM184A/W185A): −8.4 (±0.4) Kcal/mol; viral infectivity of particles released by treated cells (HIV-IIIB; 6.8 μM): very little to no viral infectivity; viral infectivity of particles released by treated cells (HIV-IIIB; 13.5 μM): very little to no viral infectivity; infectivity respect to the control (HIV-IIIB): 7.7%
CC[C@H](C)[C@H](N)C(=O)N[C@@H](CO)C(=O)N[C@@H](Cc1ccccc1)C(=O)N[C@@]1(C)CCC/C=C\CCC[C@@](C)(C(=O)N[C@@H](Cc2ccc(O)cc2)C(=O)N[C@@H](Cc2ccc(O)cc2)C(=O)NCC(=O)N[C@@H](CCC(=O)O)C(=O)N[C@@H](CO)C(=O)NCC(=O)N[C@@H](CO)C(N)=O)NC(=O)[C@H](CC(C)C)NC(=O)[C@H]([C@@H](C)CC)NC(=O)[C@H](CCC(=O)O)NC1=O [NYAD-37] (H-ISF[S5]EIL[S5]YYGESGS-NH2; staple (Z) 4-8; N-terminus and C-terminus assumed)	dose-dependent decrease	dose-dependent decrease	8 ± 0.36 µM	viral infectivity of particles released by treated cells (HIV-IIIB; 15 μM): very little to no viral infectivity; viral infectivity of particles released by treated cells (HIV-IIIB; 30 μM): very little to no viral infectivity
FITC-conjugated NYAD-1: NYAD-1 N-terminally derivatized with β-Ala and FITC ({FITC-βAla}-ITF[S5]DLL[S5]YYGP-NH2; staple 4-8; also: X4, X8 also described as (S)-2-(2'-pentenyl)alanine)	–	–	–	colocalization with gag-mStrawberry [4]: significant fraction colocalized
NYAD-41: SEQ ID NO:20, linear peptide corresponding to NYAD-36, used as control (ISFDELLDYYGESGS; Linear peptide NYAD-41)	–	–	–	secondary structure by CD [3]: random nature
